Test results as given in patent US7083969B2, “Serratia marcescens strain” (Korea Research Institute of Bioscience and Biotechnology, priority 1997, dated 2006).

How the values were obtained:
[1] = Body weight of injected mice in graft versus host experiment (toxicity); format: in vivo
Experimental: (§1) A graft versus host reaction was utilized for the in vivo assay of prodigiosin's immunosuppression. The graft versus host reaction enables an assessment of the immune response of T lymphocytes. On the sixth day after transplantation of the T lymphocytes of BDF1 mice different in histocompatibility antigen, the lymphatic nodes were measured for weight, thereby assessing the immune response of T lymphocyte to the grafted heteroantigens. The prodigiosin was peritoneally injected at a dose of 30–100 mg per kg of body weight for five days while cyclophosphamide, as a positive control, was peritoneally injected at a dose of 100 mg/kg for five days. The body weights of the injected mice were measured to compare the toxicity of prodigiosin with that of cyclophosphamide. […] As for the body weight, it was not changed in the mice injected with prodigiosin at an effective concentration.

[2] = Weight ratio of the spleen to the body (toxicity); format: in vivo, mice
Experimental: (§2) A T cell-dependent immune response reaction was used to assess the influence of prodigiosin on T lymphocytes in vivo. Test animals were immunized with sheep red blood cells by peritoneal injection. 4 days after the immunization, the number of the antibody producing cells was counted. Prodigiosin was peritoneally injected everyday. Based on the number of the […] cells in the non-treated animals, the influence of prodigiosin on T lymphocytes in vivo was assessed as percentage. Also, the weight ratio of the spleen to the body was measured to assay the toxicity of prodigiosin to the animals. Cyclophosphamide was used as a positive control.

T lymphocytes [3] = experiment: Graft versus host reaction in vivo (lymphatic node weight); design: species or system BDF1 mice; settings: 100 mg/kg peritoneally for five days; sixth day after transplantation
Description: (§3) Germ-free test animals, mice BDF1 and B6C3F1, obtained from Genetic Resources Center, Korean Research Institute of Bioscience and Biotechnology in the Korean Institute of Science and Technology, were used for the assay of the immunosuppressive activity of prodigiosin. […] At such concentrations as show no cytotoxic effects, prodigiosin cannot suppress the immune response of B lymphocytes. […] This selective immunosuppression for T lymphocytes is not ascribed to the selective cytotoxicity for T lymphocytes. The same immunosuppression results as in the ex vivo experiments were obtained in in vivo experiments. When T lymphocyte activity was measured by use of a graft versus host reaction and a T cell-dependent antibody producing reaction, the prodigiosin suppressed the immune response, but exerted no toxicity on animals. Therefore, the immunosuppressive activity of the prodigiosin is thought to be attributed to the selective suppression for T lymphocyte activity.
as §1

T lymphocytes [4] = experiment: T cell-dependent immune response in vivo (antibody producing cells after sheep red blood cell immunization); design: species or system mice; settings: 100 mg/kg; 4 days after immunization
Description: as §3, §2

CD8 T lymphocytes = settings: known; cited from earlier work
T lymphocytes [5] = settings: known; cited from earlier work

| SMILES | Body weight ([1]; 100 mg/kg peritoneally for five days) [g] | body weight change ([1]; at an effective concentration) | Wt. Ratio of spleen/body (%) ([2]; 100 mg/kg) | toxicity judged by weight ratio of the spleen to the body ([2]; at effective concentrations) | Wt. (mg) of Lymphatic node (T lymphocytes [3]) [mg] | Immune Response (%) (T lymphocytes [4]) | suppression of CD8 T lymphocytes (CD8 T lymphocytes) | proliferation of T lymphocytes (T lymphocytes [5]) |
| --- | --- | --- | --- | --- | --- | --- | --- | --- |
| O=P1(N(CCCl)CCCl)NCCCO1 (centres unmarked) [Cyclophosphamide, reference compound] | 18 | loss of body weight | 26 | very toxic | 0.06 | 7 |  |  |
| CCCCCCCCCCCc1ccc(/C=C2\N=C(c3ccc[nH]3)C=C2OC)[nH]1 [Prodigiosin 25-C, prodigiosin 25-C] |  |  |  |  |  |  | suppressed | suppress |
